Assay [1] is described as follows: Inhibition of HCV NS3 protease. On the set-up: species or system Hepacivirus hominis.
The subject of assay [2] is Hepatitis C virus. Description: Antiviral activity against HCV in human Huh7 cells after 72 hrs by cell based luciferase reporter assay. The class given is functional, organism-based, Hepacivirus hominis. Particulars: Huh-7, 72 h.

SMILES strings stand for the structures.

On to `C=C[C@@H]1C[C@]1(NC(=O)[C@@H]1C[C@@H](Oc2cc(-c3ccccc3)nc3cc(OC)ccc23)CN1C(=O)[C@@H](NC(=O)OC1CCCC1)C(C)(C)C)C(=O)O`, for which the 50% inhibitory concentration (IC50) in assay [1] came to 14 nM. This compound also had an EC50 in assay [2] of 550 nM.

In the case of `C=C[C@@H]1C[C@]1(NC(=O)[C@@H]1C[C@@H](n2cc(-c3ccc(Cl)cc3)nn2)CN1C(=O)[C@@H](NC(=O)OC1CCCC1)C(C)(C)C)C(=O)NS(=O)(=O)C1CC1`, in assay [1], the 50% inhibitory concentration (IC50) was under 3 nM. In assay [2], this compound returned an EC50 of 680 nM.

For `C=C[C@@H]1C[C@]1(NC(=O)[C@@H]1C[C@@H](n2cc(-c3ccsc3)nn2)CN1C(=O)[C@@H](NC(=O)OC1CCCC1)C(C)(C)C)C(=O)NS(=O)(=O)C1CC1`, the IC50 in assay [1] is under 3 nM. The same compound came in with a half-maximal effective concentration (EC50) in assay [2] of 1220 nM.

`C=C[C@@H]1C[C@]1(NC(=O)[C@@H]1C[C@@H](n2cc(C3CCCCC3)nn2)CN1C(=O)[C@@H](NC(=O)OC1CCCC1)C(C)(C)C)C(=O)O` had an IC50 in assay [1] of 4300 nM.

`C=C[C@@H]1C[C@]1(NC(=O)[C@@H]1C[C@@H](n2cc(-c3cc(Cl)cc(Cl)c3)nn2)CN1C(=O)[C@@H](NC(=O)OC1CCCC1)C(C)(C)C)C(=O)NS(=O)(=O)C1CC1` displayed an IC50 in assay [1] of under 3 nM. This compound also gave an EC50 in assay [2] of 140 nM.

In turn, `C=C[C@@H]1C[C@]1(NC(=O)[C@@H]1C[C@@H](n2ccnn2)CN1C(=O)[C@@H](NC(=O)OC1CCCC1)C(C)(C)C)C(=O)O` returned a 50% inhibitory concentration (IC50) in assay [1] of 59000 nM.

As for `C=C[C@@H]1C[C@]1(NC(=O)[C@@H]1C[C@@H](n2cc(-c3cc(Br)cc(Br)c3)nn2)CN1C(=O)[C@@H](NC(=O)OC1CCCC1)C(C)(C)C)C(=O)NS(=O)(=O)C1CC1`, the IC50 in assay [1] is under 3 nM. A half-maximal effect in assay [2] (EC50) was put at 150 nM.

In assay [1], `C=C[C@@H]1C[C@]1(NC(=O)[C@@H]1C[C@@H](n2cc(-c3ccc4c(c3)OCO4)nn2)CN1C(=O)[C@@H](NC(=O)OC1CCCC1)C(C)(C)C)C(=O)NS(=O)(=O)C1CC1` displayed an IC50 of under 3 nM. The same compound displayed an EC50 in assay [2] of 190 nM.

Turning to `C=C[C@@H]1C[C@]1(NC(=O)[C@@H]1C[C@@H](n2cc(-c3ccc4c(c3)CCO4)nn2)CN1C(=O)[C@@H](NC(=O)OC1CCCC1)C(C)(C)C)C(=O)NS(=O)(=O)C1CC1`, the IC50 in assay [1] is under 3 nM. In addition, the concentration for a half-maximal effect (EC50) in assay [2] is 230 nM.

As for `C=C[C@@H]1C[C@]1(NC(=O)[C@@H]1C[C@@H](n2cc(-c3ccccc3Cl)nn2)CN1C(=O)[C@@H](NC(=O)OC1CCCC1)C(C)(C)C)C(=O)NS(=O)(=O)C1CC1`, the half-maximal inhibitory concentration (IC50) in assay [1] is under 3 nM. The midpoint of the response in assay [2], the EC50, lay at 220 nM.

Regarding `C=C[C@@H]1C[C@]1(NC(=O)[C@@H]1C[C@@H](n2cc(-c3ccc(N(C)C)cc3)nn2)CN1C(=O)[C@@H](NC(=O)OC1CCCC1)C(C)(C)C)C(=O)NS(=O)(=O)C1CC1`, in assay [1], the IC50 is under 3 nM. In assay [2], this compound displayed a concentration for a half-maximal effect (EC50) of 270 nM.

`C=C[C@@H]1C[C@]1(NC(=O)[C@@H]1C[C@@H](n2cc(-c3ccc(-c4ccccc4)cc3)nn2)CN1C(=O)[C@@H](NC(=O)OC1CCCC1)C(C)(C)C)C(=O)O` had a half-inhibitory concentration (IC50) in assay [1] of 860 nM.

In assay [1], `C=C[C@@H]1C[C@]1(NC(=O)[C@@H]1C[C@@H](n2cc(-c3ccc(OC)cc3)nn2)CN1C(=O)[C@@H](NC(=O)OC1CCCC1)C(C)(C)C)C(=O)O` yielded an IC50 of 360 nM.

In assay [1], `C=C[C@@H]1C[C@]1(NC(=O)[C@@H]1C[C@@H](n2cc(-c3cccc4ccccc34)nn2)CN1C(=O)[C@@H](NC(=O)OC1CCCC1)C(C)(C)C)C(=O)O` displayed a concentration for half-maximal inhibition (IC50) of 890 nM.

Regarding `C=C[C@@H]1C[C@]1(NC(=O)[C@@H]1C[C@@H](n2cc(-c3ccc(Cl)cc3)nn2)CN1C(=O)[C@@H](NC(=O)OC1CCCC1)C(C)(C)C)C(=O)O`, half-maximal inhibition in assay [1] (IC50) was put at 790 nM.

`C=C[C@@H]1C[C@]1(NC(=O)[C@@H]1C[C@@H](n2cc(-c3ccc(S(C)(=O)=O)cc3)nn2)CN1C(=O)[C@@H](NC(=O)OC1CCCC1)C(C)(C)C)C(=O)NS(=O)(=O)C1CC1` registered a 50% inhibitory concentration (IC50) in assay [1] of under 3 nM. In assay [2], the EC50 was over 7300 nM.

In assay [1], `C=C[C@@H]1C[C@]1(NC(=O)[C@@H]1C[C@@H](n2cc(-c3ccc4c(c3)CCO4)nn2)CN1C(=O)[C@@H](NC(=O)OC1CCCC1)C(C)(C)C)C(=O)O` registered a half-maximal inhibitory concentration (IC50) of 130 nM.

The compound `C=C[C@@H]1C[C@]1(NC(=O)[C@@H]1C[C@@H](n2cc(-c3cccc(Cl)c3)nn2)CN1C(=O)[C@@H](NC(=O)OC1CCCC1)C(C)(C)C)C(=O)NS(=O)(=O)C1CC1` came in with a half-maximal inhibitory concentration (IC50) in assay [1] of under 3 nM. Further, a half-maximal response in assay [2] (EC50) required 170 nM.

Compound `C=C[C@@H]1C[C@]1(NC(=O)[C@@H]1C[C@@H](n2cc(-c3cc(Br)cc(Br)c3)nn2)CN1C(=O)[C@@H](NC(=O)NC1CCCC1)C(C)(C)C)C(=O)NS(=O)(=O)C1CC1` came in with an EC50 in assay [2] of 105 nM.

As for `C=C[C@@H]1C[C@]1(NC(=O)[C@@H]1C[C@@H](n2cc(-c3ccccn3)nn2)CN1C(=O)[C@@H](NC(=O)OC1CCCC1)C(C)(C)C)C(=O)O`, it took 3700 nM to reach half-maximal inhibition in assay [1] (IC50).

Consider `C=C[C@@H]1C[C@]1(NC(=O)[C@@H]1C[C@@H](n2nncc2-c2ccccc2)CN1C(=O)[C@@H](NC(=O)OC1CCCC1)C(C)(C)C)C(=O)O`, for which the IC50 in assay [1] was found to be 14000 nM.

Take `C=C[C@@H]1C[C@]1(NC(=O)[C@@H]1C[C@@H](n2cc(-c3ccccc3)nn2)CN1C(=O)[C@@H](NC(=O)OC1CCCC1)C(C)(C)C)C(=O)O`: in assay [1], it took 700 nM to reach half-maximal inhibition (IC50).

In the case of `C=C[C@@H]1C[C@]1(NC(=O)[C@@H]1C[C@@H](n2cc(-c3cc(Br)cc(Br)c3)nn2)CN1C(=O)[C@@H](NC(=O)OC1CCCC1)C(C)(C)C)C(=O)NS(=O)(=O)C1(C)CC1`, the EC50 in assay [2] is 77 nM. This counts as double-digit nanomolar.

In assay [1], `C=C[C@@H]1C[C@]1(NC(=O)[C@@H]1C[C@@H](n2cc(-c3cccc(Br)c3)nn2)CN1C(=O)[C@@H](NC(=O)OC1CCCC1)C(C)(C)C)C(=O)NS(=O)(=O)C1CC1` displayed an IC50 of under 3 nM. In assay [2], this compound displayed an EC50 of 210 nM.

`C=C[C@@H]1C[C@]1(NC(=O)[C@@H]1C[C@@H](n2cc(-c3ccccc3)nn2)CN1C(=O)[C@@H](NC(=O)OC1CCCC1)C(C)(C)C)C(=O)NS(=O)(=O)C1CC1` gave an IC50 in assay [1] of 2.7 nM. Besides, the concentration giving a half-maximal response (EC50) in assay [2] was 430 nM.

Source of the values: ChEMBL document CHEMBL1143083, “Potent triazolyl-proline-based inhibitors of HCV NS3 protease” (Bioorg Med Chem Lett, 2008).
